Measured values taken from the supplement of paper PMC10307832.

How the values were obtained:
Experiment in all cases: relative viability (nuclei count vs DMSO), 5 days (fraction); higher = more cells survive
H3255 = test system: H3255
Method in brief: (§1)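 Lung cancer cell lines, seeded in 1536-well plates, were treated the following day by pin tool with a single drug or with five library-drug doses (not always all listed) in √10 steps on top of a fixed anchor-drug dose. Cells were fixed and nuclei stained in one step after 5 days, and nuclei were counted. Relative viability is the nuclei count for treated wells divided by that for vehicle wells, reported as medians of duplicate plates.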

EMC-BAC-2 = test system: EMC-BAC-2
Method in brief: as §1

NCI-H2087 = test system: NCI-H2087
Method in brief: as §1

NCI-H23 = test system: NCI-H23
Method in brief: as §1

NCI-H2405 = test system: NCI-H2405
Method in brief: as §1

EPLC-272H = test system: EPLC-272H
Method in brief: as §1

NCI-H1993 = test system: NCI-H1993
Method in brief: as §1

HCC-44 = test system: HCC-44
Method in brief: as §1

NCI-H1355 = test system: NCI-H1355
Method in brief: as §1

HCC-827 = test system: HCC-827
Method in brief: as §1

LCLC-103H = test system: LCLC-103H
Method in brief: as §1

UMC-11 = test system: UMC-11
Method in brief: as §1

LCLC-97TM1 = test system: LCLC-97TM1
Method in brief: as §1

NCI-H322M = test system: NCI-H322M
Method in brief: as §1

NCI-H650 = test system: NCI-H650
Method in brief: as §1

NCI-H2085 = test system: NCI-H2085
Method in brief: as §1

NCI-H1563 = test system: NCI-H1563
Method in brief: as §1

ChaGo-K-1 = test system: ChaGo-K-1
Method in brief: as §1

NCI-H520 = test system: NCI-H520
Method in brief: as §1

NCI-H1651 = test system: NCI-H1651
Method in brief: as §1

What does the source list for `Clc1ccc(Nc2nnc(Cc3ccncc3)c3ccccc23)cc1` [Vatalanib] + CC(C)C[C@H](NC(=O)[C@H](Cc1ccccc1)NC(=O)c1cnccn1)B(O)O [Bortezomib] (partner 0.002 µM)?
relative viability (H3255; first compound 0.04 µM): 0.627; relative viability (H3255; first compound 0.1265 µM): 0.764; relative viability (H3255; first compound 0.4 µM): 0.494; relative viability (H3255; first compound 1.265 µM): 0.47; relative viability (H3255; first compound 4 µM): 0.713; relative viability (EMC-BAC-2; first compound 0.04 µM): 1.04; relative viability (EMC-BAC-2; first compound 0.1265 µM): 1.09; relative viability (EMC-BAC-2; first compound 0.4 µM): 1.12; relative viability (EMC-BAC-2; first compound 1.265 µM): 1.01; relative viability (EMC-BAC-2; first compound 4 µM): 1.05; relative viability (NCI-H2087; first compound 0.04 µM): 1.05; relative viability (NCI-H2087; first compound 0.1265 µM): 0.744; relative viability (NCI-H2087; first compound 0.4 µM): 0.92; relative viability (NCI-H2087; first compound 1.265 µM): 0.917; relative viability (NCI-H2087; first compound 4 µM): 0.753; relative viability (NCI-H23; first compound 0.04 µM): 0.846; relative viability (NCI-H23; first compound 0.1265 µM): 1.03; relative viability (NCI-H23; first compound 0.4 µM): 1.14; relative viability (NCI-H23; first compound 1.265 µM): 0.865; relative viability (NCI-H23; first compound 4 µM): 1.08; relative viability (NCI-H2405; first compound 0.04 µM): 1; relative viability (NCI-H2405; first compound 0.1265 µM): 1.03; relative viability (NCI-H2405; first compound 0.4 µM): 0.76; relative viability (NCI-H2405; first compound 1.265 µM): 0.957; relative viability (NCI-H2405; first compound 4 µM): 0.939; relative viability (EPLC-272H; first compound 0.04 µM): 1.08; relative viability (EPLC-272H; first compound 0.1265 µM): 0.93; relative viability (EPLC-272H; first compound 0.4 µM): 0.843; relative viability (EPLC-272H; first compound 1.265 µM): 0.971; relative viability (EPLC-272H; first compound 4 µM): 0.982; relative viability (NCI-H1993; first compound 0.04 µM): 1.11; relative viability (NCI-H1993; first compound 0.1265 µM): 1.05; relative viability (NCI-H1993; first compound 0.4 µM): 1.02; relative viability (NCI-H1993; first compound 1.265 µM): 1.01; relative viability (NCI-H1993; first compound 4 µM): 0.869; relative viability (HCC-44; first compound 0.04 µM): 0.92; relative viability (HCC-44; first compound 0.1265 µM): 0.855; relative viability (HCC-44; first compound 0.4 µM): 0.903; relative viability (HCC-44; first compound 1.265 µM): 0.828; relative viability (HCC-44; first compound 4 µM): 0.857; relative viability (NCI-H1355; first compound 0.04 µM): 1.18; relative viability (NCI-H1355; first compound 0.1265 µM): 1.22; relative viability (NCI-H1355; first compound 0.4 µM): 1.21; relative viability (NCI-H1355; first compound 1.265 µM): 1.09; relative viability (NCI-H1355; first compound 4 µM): 1.1; relative viability (HCC-827; first compound 0.04 µM): 1.04; relative viability (HCC-827; first compound 0.1265 µM): 0.877; relative viability (HCC-827; first compound 0.4 µM): 1.05; relative viability (HCC-827; first compound 1.265 µM): 1.12; relative viability (HCC-827; first compound 4 µM): 1.03; relative viability (LCLC-103H; first compound 0.04 µM): 1.07; relative viability (LCLC-103H; first compound 0.1265 µM): 1.12; relative viability (LCLC-103H; first compound 0.4 µM): 1.07; relative viability (LCLC-103H; first compound 1.265 µM): 1.01; relative viability (LCLC-103H; first compound 4 µM): 1.13; relative viability (UMC-11; first compound 0.04 µM): 0.802; relative viability (UMC-11; first compound 0.1265 µM): 0.771; relative viability (UMC-11; first compound 0.4 µM): 0.709; relative viability (UMC-11; first compound 1.265 µM): 0.717; relative viability (UMC-11; first compound 4 µM): 0.688; relative viability (LCLC-97TM1; first compound 0.04 µM): 0.529; relative viability (LCLC-97TM1; first compound 0.1265 µM): 0.523; relative viability (LCLC-97TM1; first compound 0.4 µM): 0.528; relative viability (LCLC-97TM1; first compound 1.265 µM): 0.31; relative viability (LCLC-97TM1; first compound 4 µM): 0.769; relative viability (NCI-H322M; first compound 0.04 µM): 1.19; relative viability (NCI-H322M; first compound 0.1265 µM): 1.31; relative viability (NCI-H322M; first compound 0.4 µM): 1.33; relative viability (NCI-H322M; first compound 1.265 µM): 1.28; relative viability (NCI-H322M; first compound 4 µM): 1.08; relative viability (NCI-H650; first compound 0.04 µM): 0.891; relative viability (NCI-H650; first compound 0.1265 µM): 0.736; relative viability (NCI-H650; first compound 1.265 µM): 0.6; relative viability (NCI-H650; first compound 4 µM): 0.812; relative viability (NCI-H2085; first compound 0.04 µM): 1.07; relative viability (NCI-H2085; first compound 0.1265 µM): 0.952; relative viability (NCI-H2085; first compound 0.4 µM): 1.08; relative viability (NCI-H2085; first compound 1.265 µM): 0.995; relative viability (NCI-H2085; first compound 4 µM): 0.947; relative viability (NCI-H1563; first compound 0.04 µM): 0.868; relative viability (NCI-H1563; first compound 0.1265 µM): 0.855; relative viability (NCI-H1563; first compound 0.4 µM): 1.09; relative viability (NCI-H1563; first compound 1.265 µM): 0.814; relative viability (NCI-H1563; first compound 4 µM): 0.732; relative viability (ChaGo-K-1; first compound 0.04 µM): 0.936; relative viability (ChaGo-K-1; first compound 0.1265 µM): 0.938; relative viability (ChaGo-K-1; first compound 1.265 µM): 0.991; relative viability (ChaGo-K-1; first compound 4 µM): 1.03; relative viability (NCI-H520; first compound 0.04 µM): 0.841; relative viability (NCI-H520; first compound 0.1265 µM): 0.573; relative viability (NCI-H520; first compound 0.4 µM): 0.677; relative viability (NCI-H520; first compound 1.265 µM): 0.547; relative viability (NCI-H520; first compound 4 µM): 0.702; relative viability (NCI-H1651; first compound 0.04 µM): 0.906; relative viability (NCI-H1651; first compound 0.1265 µM): 0.917; relative viability (NCI-H1651; first compound 0.4 µM): 0.959; relative viability (NCI-H1651; first compound 1.265 µM): 0.941; relative viability (NCI-H1651; first compound 4 µM): 0.969
